According to the supplement of paper PMC13380429:

Assays:
Conditions in all cases: 72 h
HepG2 [1] = test: relative viability EC50 (midpoint between 100% and the lowest measured viability); higher = less toxic
Vero E6 [2] = test: as above
Calu-3 [3] = test: as above
Caco-2 [4] = test: as above
U2OS [5] = test: as above
HepG2 [6] = test: drug sensitivity score (DSS) for viability; higher = more toxic; extreme values may be limits of the assay
Vero E6 [7] = test: as above
Calu-3 [8] = test: as above
Caco-2 [9] = test: as above
U2OS [10] = test: as above
HepG2 [11] = test: cell viability relative to DMSO; higher = less toxic
Vero E6 [12] = test: as above
Calu-3 [13] = test: as above
Caco-2 [14] = test: as above
U2OS [15] = test: as above

Structure (SMILES) | relative viability EC50 (HepG2 [1]) [µM] | relative viability EC50 (Vero E6 [2]) [µM] | relative viability EC50 (Calu-3 [3]) [µM] | relative viability EC50 (Caco-2 [4]) [µM] | relative viability EC50 (U2OS [5]) [µM] | drug sensitivity score (HepG2 [6]) | drug sensitivity score (Vero E6 [7]) | drug sensitivity score (Calu-3 [8]) | drug sensitivity score (Caco-2 [9]) | drug sensitivity score (U2OS [10]) | cell viability (HepG2 [11]; 1 nM) [%] | cell viability (HepG2 [11]; 10 nM) [%] | cell viability (HepG2 [11]; 100 nM) [%] | cell viability (HepG2 [11]; 1000 nM) [%] | cell viability (HepG2 [11]; 10000 nM) [%] | cell viability (Vero E6 [12]; 1 nM) [%] | cell viability (Vero E6 [12]; 10 nM) [%] | cell viability (Vero E6 [12]; 100 nM) [%] | cell viability (Vero E6 [12]; 1000 nM) [%] | cell viability (Vero E6 [12]; 10000 nM) [%] | cell viability (Calu-3 [13]; 1 nM) [%] | cell viability (Calu-3 [13]; 10 nM) [%] | cell viability (Calu-3 [13]; 100 nM) [%] | cell viability (Calu-3 [13]; 1000 nM) [%] | cell viability (Calu-3 [13]; 10000 nM) [%] | cell viability (Caco-2 [14]; 1 nM) [%] | cell viability (Caco-2 [14]; 10 nM) [%] | cell viability (Caco-2 [14]; 100 nM) [%] | cell viability (Caco-2 [14]; 1000 nM) [%] | cell viability (Caco-2 [14]; 10000 nM) [%] | cell viability (U2OS [15]; 1 nM) [%] | cell viability (U2OS [15]; 10 nM) [%] | cell viability (U2OS [15]; 100 nM) [%] | cell viability (U2OS [15]; 1000 nM) [%] | cell viability (U2OS [15]; 10000 nM) [%]
CC(C)(C=O)Cc1cc(C(C)(C)C)c(O)c(C(C)(C)C)c1 | > 10 | > 10 | > 10 | > 10 | > 10 | 0 | 0 | 0 | 0 | 0 | 97.2 | 96.1 | 108 | 99.9 | 90.9 | 97.1 | 97.8 | 103 | 98.4 | 101 | 102 | 98.8 | 91.2 | 100 | 102 | 92.7 | 97.6 | 97.6 | 90.4 | 96.7 | 106 | 103 | 104 | 98.1 | 102
CN=c1nc(-c2ccccc2)n(-c2ccccc2)s1 | > 10 | > 10 | > 10 | > 10 | > 10 | 0 | 0 | 0 | 0 | 0 | 98.4 | 99.8 | 98 | 92.2 | 95.7 | 97.8 | 99.3 | 96.7 | 101 | 87.9 | 110 | 101 | 95.8 | 89.9 | 96 | 97.2 | 105 | 97 | 97.7 | 89 | 95.5 | 98.1 | 93.4 | 96.9 | 93.8
CO[C@H]1/C=C/O[C@@]2(C)Oc3c(C)c(O)c4c(O)c(c(/C=N/N=C/N5CCCCC5)c(O)c4c3C2=O)NC(=O)/C(C)=C\C=C\[C@H](C)[C@H](O)[C@@H](C)[C@@H](O)[C@@H](C)[C@H](OC(C)=O)[C@@H]1C | > 10 | > 10 | > 10 | > 10 | > 10 | 0 | 0 | 0 | 0 | 0 | 98.5 | 101 | 93.3 | 113 | 108 | 102 | 100 | 98 | 98.2 | 90.9 | 107 | 102 | 105 | 98.2 | 101 | 85.4 | 96.2 | 84.9 | 90.9 | 83.1 | 102 | 106 | 99 | 99.6 | 91.6
